Where two headings read alike, the source gives them in different places. Starred links: 1 amine or outer side, 2 acyl side, 3 side chain; linkers in the order of their positions; H or OH if unused. Non-standard residues stand in square brackets, D forms with d. Groups on a side chain read outwards from the residue. *: point of attachment. C20 diacid = O=C(O)CCCCCCCCCCCCCCCCCCC(=O)*; C18 diacid = O=C(O)CCCCCCCCCCCCCCCCC(=O)*; γGlu = O=C(O)[C@H](CCC(=O)[*:2])N[*:1]; εLys = N[C@@H](CCCCN[*:1])C(=O)[*:2]; AEEA = NCCOCCOCC(=O)O; Aib = CC(C)(N)C(=O)O
Legend:
Type in all cases: cell-based
Settings in all cases: CreLuc reporter gene assay
hNPY2R = molecular target: T1, hNPY2R (Homo sapiens, UniProt P49146); test: hNPY2R CreLuc reporter gene assay in 0.5% and 100% plasma
T1 construct: expressed in transfected cells; host or cells: HEK-293 cells carrying a CRE-luciferase reporter gene
T1 sequence (P49146 1-381): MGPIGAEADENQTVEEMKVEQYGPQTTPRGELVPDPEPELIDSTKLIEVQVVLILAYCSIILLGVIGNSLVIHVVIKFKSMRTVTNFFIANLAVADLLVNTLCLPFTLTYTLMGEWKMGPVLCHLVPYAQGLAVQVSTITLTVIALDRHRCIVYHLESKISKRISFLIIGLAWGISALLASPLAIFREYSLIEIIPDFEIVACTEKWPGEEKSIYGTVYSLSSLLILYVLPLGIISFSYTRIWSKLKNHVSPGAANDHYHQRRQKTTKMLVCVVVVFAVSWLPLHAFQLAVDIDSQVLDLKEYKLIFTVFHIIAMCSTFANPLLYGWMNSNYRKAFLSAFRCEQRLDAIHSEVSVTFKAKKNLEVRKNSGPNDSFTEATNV
In short: (§1)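 Agonist EC50s came from 8-concentration curves over four decades, fitted by non-linear variable-slope regression of CRE-driven luciferase luminescence. Cells were exposed 4 h at 37 °C, in buffer with 0.5% human plasma or in 100% plasma; GIPR was expressed in CHO cells, GLP-1R and NPY2R in HEK cells.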

hGIPR = molecular target: T2, hGIPR (Homo sapiens, UniProt P48546); test: hGIPR CreLuc reporter gene assay in 0.5% and 100% plasma
T2 construct: expressed in transfected cells; host or cells: CHO cells carrying a CRE-luciferase reporter gene
T2 sequence (P48546 22-466): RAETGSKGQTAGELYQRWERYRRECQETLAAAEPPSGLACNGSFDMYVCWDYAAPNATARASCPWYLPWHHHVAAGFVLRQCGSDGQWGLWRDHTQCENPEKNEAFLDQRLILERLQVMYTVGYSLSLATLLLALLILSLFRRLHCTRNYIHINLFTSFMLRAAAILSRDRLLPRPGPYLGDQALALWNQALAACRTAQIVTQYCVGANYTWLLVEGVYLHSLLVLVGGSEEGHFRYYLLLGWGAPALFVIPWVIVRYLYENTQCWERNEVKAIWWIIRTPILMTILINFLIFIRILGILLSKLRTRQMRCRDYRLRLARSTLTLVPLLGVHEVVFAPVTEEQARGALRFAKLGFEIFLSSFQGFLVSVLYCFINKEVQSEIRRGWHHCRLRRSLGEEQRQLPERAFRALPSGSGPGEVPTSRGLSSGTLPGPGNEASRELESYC
In short: as §1

hGLP1R = molecular target: T3, hGLP1R (Homo sapiens, UniProt P43220); test: hGLP1R CreLuc reporter gene assay in 0.5% and 100% plasma
T3 construct: expressed in transfected cells; host or cells: HEK-293 cells carrying a CRE-luciferase reporter gene
In short: as §1

[1] = 0.5% human plasma, read-out: hNPY2R 0.5% hP
[2] = 100% human plasma, read-out: hNPY2R 100% hP
[3] = 0.5% human plasma, read-out: hGIPR 0.5% hP
[4] = 100% human plasma, read-out: hGIPR 100% hP
[5] = 0.5% human plasma, read-out: hGLP1R 0.5% hP
[6] = 100% human plasma, read-out: hGLP1R 100% hP

T3 sequence (P43220 24-463): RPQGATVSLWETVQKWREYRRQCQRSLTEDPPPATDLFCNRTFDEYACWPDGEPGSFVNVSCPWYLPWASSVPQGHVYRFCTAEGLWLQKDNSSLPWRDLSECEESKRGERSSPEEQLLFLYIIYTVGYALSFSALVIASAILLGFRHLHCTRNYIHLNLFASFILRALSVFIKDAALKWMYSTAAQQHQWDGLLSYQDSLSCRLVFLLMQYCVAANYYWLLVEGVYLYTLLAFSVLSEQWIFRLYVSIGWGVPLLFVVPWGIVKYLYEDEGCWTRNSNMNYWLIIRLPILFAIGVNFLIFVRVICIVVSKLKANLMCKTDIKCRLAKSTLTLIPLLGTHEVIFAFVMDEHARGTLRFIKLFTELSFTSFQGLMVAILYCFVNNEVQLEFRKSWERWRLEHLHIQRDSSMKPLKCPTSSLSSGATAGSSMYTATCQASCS

Substance | EC50 (hNPY2R; [1]) [nM] | EC50 (hNPY2R; [2]) [nM] | EC50 (hGIPR; [3]) [nM] | EC50 (hGIPR; [4]) [nM] | EC50 (hGLP1R; [5]) [nM] | EC50 (hGLP1R; [6]) [nM]
H-Y[Aib]EGTFTSDYSI[Aib]LEKEAQ[Aib]KFVEWLIK([εLys-γGlu-γGlu-γGlu-γGlu-γGlu-γGlu-C20 diacid])GGPSSGASLRHYYNWLTRQRY-NH2 [Compound 46, Y-Aib-E-G-T-F-T-S-D-Y-S-I-Aib-L-E-K-E-A-Q-Aib-K-F-V-E-W-L-I-K(1,3)-GGPSSGASLRHYYNWLTRQRY-NH2.C20DA-gGlu-gGlu-gGlu-gGlu-gGlu-gGlu-eLys(1,2)] | 10.2 | 36 | 0.2 | 1.21 | 0.21 | 
H-Y[Aib]EGTFTSDYSI[Aib]LEKQAE[Aib]AFVEWLIK([γGlu-γGlu-γGlu-γGlu-C18 diacid])GGPSEGASLRHYYNWLTRQRY-NH2 [Compound 262, Y-Aib-E-G-T-F-T-S-D-Y-S-I-Aib-L-E-K-Q-A-E-Aib-A-F-V-E-W-L-I-K(1,3)-GGPSEGASLRHYYNWLTRQRY-NH2.C18DA-gGlu-gGlu-gGlu-gGlu(1,2)] | 13.2 |  | 0.08 | 0.53 | 0.13 | 
H-Y[Aib]EGTFTSDYSI[Aib]LEKQAE[Aib]AFVQWLIK([AEEA-AEEA-γGlu-γGlu-γGlu-γGlu-C18 diacid])GGPSEGASLRHYYNWLTRQRY-NH2 [Compound 156, Y-Aib-E-G-T-F-T-S-D-Y-S-I-Aib-L-E-K-Q-A-E-Aib-A-F-V-Q-W-L-I-K(1,3)-GGPSEGASLRHYYNWLTRQRY-NH2.C18DA-gGlu-gGlu-gGlu-gGlu-OEG-OEG(1,2)] | 13.5 | 26.5 | 0.16 |  | 0.18 | 
H-Y[Aib]EGTFTSDYSI[Aib]LEKQAE[Aib]AFVQWLIK([εLys-γGlu-γGlu-γGlu-γGlu-C18 diacid])GGPSEGASLRHYYNWLTRQRY-NH2 [Compound 174, Y-Aib-E-G-T-F-T-S-D-Y-S-I-Aib-L-E-K-Q-A-E-Aib-A-F-V-Q-W-L-I-K(1,3)-GGPSEGASLRHYYNWLTRQRY-NH2.C18DA-gGlu-gGlu-gGlu-gGlu-eLys(1,2)] | 11.5 | 39.2 | 0.17 | 1.26 | 0.22 | 7.71
H-Y[Aib]EGTFTSDYSI[Aib]LEKQAE[Aib]AFVQWLIK([εLys-γGlu-γGlu-γGlu-γGlu-C18 diacid])GGPSEPASLRHYYNWLTRQRY-NH2 [Compound 54, Y-Aib-E-G-T-F-T-S-D-Y-S-I-Aib-L-E-K-Q-A-E-Aib-A-F-V-Q-W-L-I-K(1,3)-GGPSEPASLRHYYNWLTRQRY-NH2.C18DA-gGlu-gGlu-gGlu-gGlu-eLys(1,2)] | 14 |  | 0.24 |  | 0.22 | 7.71
H-Y[Aib]EGTFTSDYSI[Aib]LEKQAE[Aib]AFVQWLIK([εLys-γGlu-γGlu-γGlu-γGlu-γGlu-C18 diacid])GGPSEGASLRHYYNWLTRQRY-NH2 [Compound 138, Y-Aib-E-G-T-F-T-S-D-Y-S-I-Aib-L-E-K-Q-A-E-Aib-A-F-V-Q-W-L-I-K(1,3)-GGPSEGASLRHYYNWLTRQRY-NH2.C18DA-gGlu-gGlu-gGlu-gGlu-gGlu-eLys(1,2)] | 18.3 |  | 0.13 | 0.81 | 0.19 | 
H-Y[Aib]EGTFTSDYSI[Aib]LEKQAE[Aib]AFVQWLIK([εLys-γGlu-γGlu-γGlu-γGlu-γGlu-C20 diacid])GGPSEGASLRHYYNWLTRQRY-NH2 [Compound 200, Y-Aib-E-G-T-F-T-S-D-Y-S-I-Aib-L-E-K-Q-A-E-Aib-A-F-V-Q-W-L-I-K(1,3)-GGPSEGASLRHYYNWLTRQRY-NH2.C20DA-gGlu-gGlu-gGlu-gGlu-gGlu-eLys(1,2)] | 12.1 |  | 0.37 |  | 0.48 | 
H-Y[Aib]EGTFTSDYSI[Aib]LEKQAE[Aib]AFVQWLIK([εLys-γGlu-γGlu-γGlu-γGlu-γGlu-γGlu-C18 diacid])GGPSSGASLRHYYNWLTRQRY-NH2 [Compound 51, Y-Aib-E-G-T-F-T-S-D-Y-S-I-Aib-L-E-K-Q-A-E-Aib-A-F-V-Q-W-L-I-K(1,3)-GGPSSGASLRHYYNWLTRQRY-NH2.C18DA-gGlu-gGlu-gGlu-gGlu-gGlu-gGlu-eLys(1,2)] | 13.7 | 42.2 | 0.23 | 1.37 | 0.15 | 
H-Y[Aib]EGTFTSDYSI[Aib]LEKQAQ[Aib]AFIEWLIK([AEEA-AEEA-γGlu-γGlu-γGlu-γGlu-C20 diacid])GGPSEGASLRHYYNWLTRQRY-NH2 [Compound 231, Y-Aib-E-G-T-F-T-S-D-Y-S-I-Aib-L-E-K-Q-A-Q-Aib-A-F-I-E-W-L-I-K(1,3)-GGPSEGASLRHYYNWLTRQRY-NH2.C20DA-gGlu-gGlu-gGlu-gGlu-OEG-OEG(1,2)] | 19.2 |  | 0.33 | 1.43 | 0.14 | 
H-Y[Aib]EGTFTSDYSI[Aib]LEKQAQ[Aib]AFIEWLIK([γGlu-γGlu-γGlu-γGlu-C18 diacid])GGPSEGASLRHYYNWLTRQRY-NH2 [Compound 247, Y-Aib-E-G-T-F-T-S-D-Y-S-I-Aib-L-E-K-Q-A-Q-Aib-A-F-I-E-W-L-I-K(1,3)-GGPSEGASLRHYYNWLTRQRY-NH2.C18DA-gGlu-gGlu-gGlu-gGlu(1,2)] | 11.9 | 64.7 | 0.26 | 1.57 | 0.11 | 
H-Y[Aib]EGTFTSDYSI[Aib]LEKQAQ[Aib]AFIEWLIK([γGlu-γGlu-γGlu-γGlu-C20 diacid])GGPSEGASLRHYYNWLTRQRY-NH2 [Compound 283, Y-Aib-E-G-T-F-T-S-D-Y-S-I-Aib-L-E-K-Q-A-Q-Aib-A-F-I-E-W-L-I-K(1,3)-GGPSEGASLRHYYNWLTRQRY-NH2.C20DA-gGlu-gGlu-gGlu-gGlu(1,2)] | 14.7 |  | 0.23 | 1.86 | 0.13 | 3.86
H-Y[Aib]EGTFTSDYSI[Aib]LEKQAQ[Aib]AFVEWLIK([AEEA-AEEA-Glu-Glu-Glu-C18 diacid])GGPSEGASLRHYYNWLTRQRY-NH2 [Compound 298, Y-Aib-E-G-T-F-T-S-D-Y-S-I-Aib-L-E-K-Q-A-Q-Aib-A-F-V-E-W-L-I-K(1,3)-GGPSEGASLRHYYNWLTRQRY-NH2.C18DA-E-E-E-OEG-OEG(1,2)] | 12.1 |  | 0.13 | 1.27 | 0.11 | 
H-Y[Aib]EGTFTSDYSI[Aib]LEKQAQ[Aib]AFVEWLIK([AEEA-AEEA-γGlu-γGlu-γGlu-C18 diacid])GGPEEGASLRHYYNWLTRQRY-NH2 [Compound 248, Y-Aib-E-G-T-F-T-S-D-Y-S-I-Aib-L-E-K-Q-A-Q-Aib-A-F-V-E-W-L-I-K(1,3)-GGPEEGASLRHYYNWLTRQRY-NH2.C18DA-gGlu-gGlu-gGlu-OEG-OEG(1,2)] | 18.7 |  | 0.12 | 0.79 | 0.25 | 
H-Y[Aib]EGTFTSDYSI[Aib]LEKQAQ[Aib]AFVEWLIK([AEEA-AEEA-γGlu-γGlu-γGlu-C18 diacid])GGPESGASLRHYYNWLTRQRY-NH2 [Compound 166, Y-Aib-E-G-T-F-T-S-D-Y-S-I-Aib-L-E-K-Q-A-Q-Aib-A-F-V-E-W-L-I-K(1,3)-GGPESGASLRHYYNWLTRQRY-NH2.C18DA-gGlu-gGlu-gGlu-OEG-OEG(1,2)] | 12.5 |  | 0.08 | 0.64 | 0.07 | 4.24
